Legend:
[1] = target: T1, C2GnT3 (Homo sapiens, UniProt Q9P109); assay: GlcNAc-transferase activity of recombinant soluble C2GnT3 with acceptor/donor substrates; format: biochemical; details: for C2GnT3 activity with donor substrate (in words): as donor substrate, data not shown; for Substrate specificity, C2GnT3 activity: partially purified media of infected High Five cells, background subtracted; for C2GnT3 activity with acceptor substrate (in words): as acceptor substrate
T1 construct: An expression vector construct designed to encode amino acid residues 39-453 of C2GnT3; gp67 secretion signal of vector pAcGP67A (N); made in house; host or cells: Sf9 insect cells (baculovirus; culture supernatant); High Five cells for kinetic properties (partially purified)
T1 sequence (Q9P109 39-453): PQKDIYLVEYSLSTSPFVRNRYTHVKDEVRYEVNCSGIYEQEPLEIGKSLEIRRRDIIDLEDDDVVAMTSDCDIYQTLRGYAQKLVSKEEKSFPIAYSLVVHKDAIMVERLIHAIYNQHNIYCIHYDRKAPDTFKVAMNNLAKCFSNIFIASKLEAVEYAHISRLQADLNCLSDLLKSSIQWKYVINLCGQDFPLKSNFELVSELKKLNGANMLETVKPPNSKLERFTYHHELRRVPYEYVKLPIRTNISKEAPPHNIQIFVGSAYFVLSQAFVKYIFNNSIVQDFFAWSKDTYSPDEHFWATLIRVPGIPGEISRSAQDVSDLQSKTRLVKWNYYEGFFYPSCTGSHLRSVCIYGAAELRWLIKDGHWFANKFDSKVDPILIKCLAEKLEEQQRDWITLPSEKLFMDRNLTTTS
Text: with BamH1 and EcoRI restriction sites, respectively (FIG. 2). The PCR product was cloned between the BamHI and EcoRI sites of pAcGP67A (PharMingen), and the insert was fully sequenced. pAcGP67-C2GnT3-sol was co-transfected with Baculo-Gold™ DNA (PharMingen) as described previously (23). Recombinant Baculovirus was obtained after two successive amplifications in Sf9 cells grown in serum-containing medium, and titers of virus were estimated by titration in 24-well plates with monitoring of enzyme activities.
(§1) Controls included the pAcGP67-GalNAc-T3-sol (24). The kinetic properties were determined with partially purified enzymes expressed in High Five™ cells. Partial purification was performed by consecutive chromatography on Amberlite IRA-95, DEAE-Sephacryl and SP-Sepharose essentially as described (25; 25).
(§2) Standard assays were performed using culture supernatant from infected cells in 50 μl reaction mixtures containing 100 mM MES (pH 6.5), 0.1% Nonidet P-40, 150 μM UDP-[^14C]-GlcNAc (2,000 cpm/nmol) (Amersham Pharmacia Biotech), and the indicated concentrations of acceptor substrates (Sigma and Toronto Research Laboratories Ltd., see Table I for structures). Reaction products were quantified by chromatography on Dowex AG1-X8.

[2] = target: T2, C2GnT1 (Homo sapiens, UniProt Q02742); assay: GlcNAc-transferase activity of C2GnT1 with acceptor substrates; format: biochemical
T2 sequence (Q02742 1-428): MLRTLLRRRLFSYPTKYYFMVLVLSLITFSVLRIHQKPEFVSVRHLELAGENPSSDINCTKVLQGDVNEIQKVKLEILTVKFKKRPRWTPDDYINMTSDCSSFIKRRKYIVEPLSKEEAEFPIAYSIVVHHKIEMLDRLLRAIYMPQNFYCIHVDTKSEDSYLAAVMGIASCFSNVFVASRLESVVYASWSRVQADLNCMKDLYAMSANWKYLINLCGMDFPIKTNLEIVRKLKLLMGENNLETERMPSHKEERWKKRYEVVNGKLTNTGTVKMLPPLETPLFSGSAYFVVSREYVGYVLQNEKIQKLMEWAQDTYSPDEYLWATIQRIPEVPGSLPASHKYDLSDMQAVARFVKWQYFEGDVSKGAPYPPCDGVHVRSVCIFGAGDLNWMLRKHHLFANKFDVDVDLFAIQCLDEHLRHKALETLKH
Procedure: as §1, §2

| C2GnT3 activity with donor substrate (in words) [1] | Substrate specificity, C2GnT3 activity ([1]; acceptor substrate 2 mM) | Substrate specificity, C2GnT3 activity ([1]; acceptor substrate 10 mM) | C2GnT3 activity with acceptor substrate (in words) [1] | Substrate specificity, C2GnT1 activity ([2]; acceptor substrate 2 mM) | Substrate specificity, C2GnT1 activity ([2]; acceptor substrate 10 mM) | Substrate inhibition of C2GnT3 enzyme activity ([1]; high acceptor concentrations up to 20 mM) | SMILES |
| --- | --- | --- | --- | --- | --- | --- | --- |
| – | <0.1 nmol/h/mg | <0.1 nmol/h/mg | no activity | <0.1 nmol/h/mg | <0.1 nmol/h/mg | – | CO[C@@H]1O[C@H](CO)[C@H](O)[C@H](O[C@@H]2O[C@H](CO)[C@@H](O)[C@H](O)[C@H]2NC(C)=O)[C@H]1O [β-D-GlcNAc-(1-3)-β-D-Gal-1-Me] |
| – | 6.6 nmol/h/mg | 14.3 nmol/h/mg | – | 9.6 nmol/h/mg | 19.0 nmol/h/mg | – | CC(=O)N[C@@H]1[C@@H](O[C@@H]2O[C@H](CO)[C@H](O)[C@H](O)[C@H]2O)[C@@H](O)[C@@H](CO)O[C@@H]1O [β-D-Gal-(1-3)-α-D-GalNAc] |
| – | <0.1 nmol/h/mg | <0.1 nmol/h/mg | no activity | <0.1 nmol/h/mg | <0.1 nmol/h/mg | – | CC(=O)N[C@H]1[C@@H](Oc2ccc([N+](=O)[O-])cc2)O[C@H](CO)[C@H](O)[C@@H]1O [α-D-GalNAc-1-p-Nph] |
| – | <0.1 nmol/h/mg | <0.1 nmol/h/mg | – | <0.1 nmol/h/mg | <0.1 nmol/h/mg | – | CC(=O)NC1C(OC2C(O)C(CO)OC(Oc3ccc([N+](=O)[O-])cc3)C2NC(C)=O)OC(CO)C(O)C1O [β-D-GlcNAc-(1-3)-α-D-GalNAc-1-p-Nph] |
| – | 18.1 nmol/h/mg | 26.1 nmol/h/mg | – | 16.2 nmol/h/mg | 23.6 nmol/h/mg | No substrate inhibition | CC(=O)N[C@H]1[C@@H](Oc2ccc([N+](=O)[O-])cc2)O[C@H](CO)[C@H](O)[C@@H]1O[C@@H]1O[C@H](CO)[C@H](O)[C@H](O)[C@H]1O [β-D-Gal-(1-3)-α-D-GalNAc-1-p-Nph] |

The remaining lines, values behind:

| SMILES | C2GnT3 activity with donor substrate (in words) [1] | Substrate specificity, C2GnT3 activity ([1]; acceptor substrate 2 mM) | Substrate specificity, C2GnT3 activity ([1]; acceptor substrate 10 mM) | C2GnT3 activity with acceptor substrate (in words) [1] | Substrate specificity, C2GnT1 activity ([2]; acceptor substrate 2 mM) | Substrate specificity, C2GnT1 activity ([2]; acceptor substrate 10 mM) | Substrate inhibition of C2GnT3 enzyme activity ([1]; high acceptor concentrations up to 20 mM) |
| --- | --- | --- | --- | --- | --- | --- | --- |
| CC(=O)N[C@H]1[C@@H](OP(=O)(O)OP(=O)(O)OC[C@H]2O[C@@H](n3ccc(=O)[nH]c3=O)[C@H](O)[C@@H]2O)O[C@H](CO)[C@H](O)[C@@H]1O [UDP-GalNAc] | no activity | – | – | – | – | – | – |
| CC(=O)N[C@H]1C(O)O[C@H](CO)[C@H](O)[C@@H]1O (stereo partly drawn) [D-GalNAc] | – | <0.1 nmol/h/mg | <0.1 nmol/h/mg | – | <0.1 nmol/h/mg | <0.1 nmol/h/mg | – |
| CC(=O)N[C@H]1[C@H](O[C@H]2[C@@H](O)[C@@H](CO)O[C@@H](O[C@H]3[C@H](O)[C@@H](O)C(O)O[C@@H]3CO)[C@@H]2O)O[C@H](CO)[C@@H](O[C@@H]2O[C@H](CO)[C@H](O)[C@H](O)[C@H]2O)[C@@H]1O (mixture of isomers) [lacto-N-neo-tetraose] | – | <0.1 nmol/h/mg | <0.1 nmol/h/mg | no activity | <0.1 nmol/h/mg | <0.1 nmol/h/mg | – |
| CC(=O)N[C@H]1[C@@H](OP(=O)(O)OP(=O)(O)OC[C@H]2O[C@@H](n3ccc(=O)[nH]c3=O)[C@H](O)[C@@H]2O)O[C@H](CO)[C@@H](O)[C@@H]1O [UDP-GlcNAc, UDP-N-acetylglucosamine] | strict donor substrate specificity | – | – | – | – | – | – |

— patent US6794169B2, “UDP-N-acetylglucosamine: galactose-β1,3-N-acetylgalactosamine-α-R / (GlcNAc to GalNAc) β1,6-N-acetylglucosaminyltransferase, C2GnT3” (Glycozym ApS, priority 1999, dated 2004)
